Values after ≈ are worked out from the molar mass of the structure shown.
Columns and labels:
[1] = test system: C. krusei ATCC 6258 (strain I); test: MIC determination (broth microdilution); type: cell-based; conditions: strain I = C. krusei ATCC 6258; MIC-0; 48 h; listed as split over r16 and r17 (r17 printed beside letter J)
[2] = test system: C. auris AR Bank # 0390 (strain L) biofilm; type: cell-based, Candida auris; conditions: treated at 0 h, XTT
[3] = test system: F. graminearum 053 (strain T); type: cell-based, Fusarium graminearum; conditions: strain T = F. graminearum 053; MIC-0; room temperature, 5 days
[4] = test system: C. auris AR Bank # 0384 (strain K); test: MIC determination (broth microdilution); type: cell-based, Candida auris; conditions: strain K = C. auris AR Bank # 0384; MIC-0; 48 h (CAS read at 24 h); Table 1; also in Table 2
[5] = test system: C. auris AR Bank # 0386 (strain V); test: MIC determination (broth microdilution); type: cell-based, Candida auris; conditions: strain V = C. auris AR Bank # 0386; MIC-0; 48 h (CAS read at 24 h)
[6] = test system: C. auris AR Bank # 0384 (strain K) pre-formed biofilm; type: cell-based, Candida auris; conditions: biofilm treated at 24 h, XTT
[7] = test system: C. auris AR Bank # 0385 (strain IV); test: MIC determination (broth microdilution); type: cell-based, Candida auris; conditions: strain IV = C. auris AR Bank # 0385; MIC-0; 48 h (CAS read at 24 h)
[8] = test system: C. neoformans CN1 (strain N); test: MIC determination (broth microdilution); type: cell-based, Cryptococcus neoformans; conditions: MIC-0, 72 h at 35° C.
[9] = test system: C. albicans ATCC MYA-2876(S) (strain E); test: MIC determination (broth microdilution); type: cell-based, Candida albicans; conditions: strain E = C. albicans ATCC MYA-2876(S); MIC-0; 48 h; listed as printed beside letter F
[10] = test system: C. neoformans ATCC MYA-85 (strain M); test: MIC determination (broth microdilution); type: cell-based, Cryptococcus neoformans; conditions: strain M = C. neoformans ATCC MYA-85; MIC-0; 72 h at 35° C.
[11] = test system: A. terreus ATCC MYA-3633 (strain R); type: cell-based, Aspergillus terreus; conditions: strain R = A. terreus ATCC MYA-3633; MIC-0; 72 h at 35° C.
[12] = test system: C. auris AR Bank # 0383 (strain III); test: MIC determination (broth microdilution); type: cell-based, Candida auris; conditions: strain III = C. auris AR Bank # 0383; MIC-0; 48 h (CAS read at 24 h)
[13] = test system: C. glabrata ATCC 2001 (strain H) pre-formed biofilm; test: Disruption of pre-formed biofilm (XTT); type: cell-based, Candida glabrata; conditions: for Pre-formed biofilm SMIC90: biofilm treated at 24 h, XTT
[14] = test system: C. glabrata ATCC 2001 (strain H); test: MIC determination (broth microdilution); type: cell-based, Candida glabrata; conditions: strain H = C. glabrata ATCC 2001; MIC-0; 48 h at 35° C.
[15] = test system: C. auris AR Bank # 0387 (strain VI); test: MIC determination (broth microdilution); type: cell-based, Candida auris; conditions: strain VI = C. auris AR Bank # 0387; MIC-0; 48 h (CAS read at 24 h)
[16] = test system: C. glabrata ATCC 2001 (strain H) biofilm; test: Prevention of biofilm formation (XTT); type: cell-based, Candida glabrata; conditions: treated at 0 h
[17] = test system: C. albicans ATCC 90819(R) (strain G); type: cell-based, Candida albicans; conditions: strain G = C. albicans ATCC 90819(R); MIC-0; 48 h; listed as printed without letter, below G
[18] = test system: A549; test: Mammalian cytotoxicity assay (resazurin cell viability); type: cell-based; conditions: A549 (human lung carcinoma); read-out: IC50 for mammalian cell lines
Excerpt: (§1) For cytotoxicity assays, the human embryonic kidney cell line (HEK-293) was purchased from the ATCC. The human bronchial epithelial cell line (BEAS-2B), the human lung carcinoma cell line (A549), and the mouse macrophage cell line (J774A.1) were generous gifts from Prof. David K. Orren (University of Kentucky, Lexington, Ky.), Prof. Markos Leggas (University of Kentucky, Lexington, Ky.), and Prof. David J. Feola (University of Kentucky, Lexington, Ky.), respectively. A549, HEK-293, and BEAS-2B cells were cultured in Dulbecco's Modified Eagle's Medium (DMEM, catalog #VWRL0100, VWR, Chicago, Ill.) supplemented with 10% fetal bovine serum (FBS; from ATCC) and 1% penicillin/streptomycin (from ATCC) at 37° C. with 5% CO2. The J774A.1 cells were cultured in DMEM (catalog #30-2002, ATCC, Manassas, Va.), which was also supplemented with FBS and antibiotics and grown at 37° C. with 5% CO2.
(§2) To examine whether the compounds are safe for human cells, cytotoxicity assays were done against four mammalian cell lines: HEK-293, A549, BEAS-2B, and J774A.1 cells. […] HEK-293 and J774A.1 cells were plated at 1×10^4 cells/mL while A549 and BEAS-2B were plated at 3×10^3 cells/mL. Compounds were tested in concentrations ranging from 0.06 to 15.6 μg/mL with final concentration of DMSO at 0.5% (FIG. 4A-D).

[19] = test system: J774A.1; test: as above; type: cell-based; conditions: J774A.1 (murine macrophage); read-out: IC50 for mammalian cell lines
Excerpt: as §1, §2

[20] = test system: BEAS-2B; test: as above; type: cell-based; conditions: BEAS-2B (human bronchial epithelial); read-out: IC50 for mammalian cell lines
Excerpt: as §1, §2

[21] = test system: HEK-293; test: as above; type: cell-based; conditions: HEK-293 (human embryonic kidney); read-out: IC50 for mammalian cell lines
Excerpt: as §1, §2

Row | Compound | MIC [1] [µg/mL] | MIC (in parentheses) [1] [µM] | Biofilm prevention SMIC90 [2] [µg/mL] | MIC [3] [µg/mL] | MIC (in parentheses) [3] [µM] | MIC [4] [µg/mL] | MIC (in parentheses) [4] [µM] | Pre-formed biofilm SMIC90 [6] [µg/mL] | MIC [8] [µg/mL] | MIC (in parentheses) [8] [µM] | MIC [9] [µg/mL] | MIC (in parentheses) [9] [µM] | MIC [10] [µg/mL] | MIC (in parentheses) [10] [µM] | MIC [11] [µg/mL] | MIC (in parentheses) [11] [µM] | Pre-formed biofilm SMIC90 [13] [µg/mL] | MIC [14] [µg/mL] | MIC (in parentheses) [14] [µM] | Biofilm prevention SMIC90 [16] [µg/mL] | other results
1 | C[C@@H]1[C@H](O)[C@@H](C)/C=C/C=C/C=C/C=C/C=C/C=C/C=C/[C@H](O[C@@H]2O[C@H](C)[C@@H](O)[C@H](N)[C@@H]2O)C[C@@H]2O[C@](O)(C[C@@H](O)C[C@@H](O)[C@H](O)CC[C@@H](O)C[C@@H](O)CC(=O)O[C@H]1C)C[C@H](O)[C@H]2C(=O)O [AmB, amphotericin B, reference compound] | 3.9 (≈ 4.22 µM) | 4.2 (≈ 3.88 µg/mL) | 1.95 | 7.8 (≈ 8.44 µM) | 8.4 (≈ 7.76 µg/mL) | 1.95 (≈ 2.11 µM) | 2.1 (≈ 1.94 µg/mL) | 1.95 | 0.98 (≈ 1.06 µM) | 1.1 (≈ 1.02 µg/mL) | 3.9 (≈ 4.22 µM) | 4.2 (≈ 3.88 µg/mL) | > 31.3 | > 33.9 | 7.8 (≈ 8.44 µM) | 8.4 (≈ 7.76 µg/mL) | 7.8 | 3.9 (≈ 4.22 µM) | 4.2 (≈ 3.88 µg/mL) | 0.98 | MIC [5]: 1.95 µg/mL (≈ 2.11 µM); MIC (in parentheses) [5]: 2.1 µM (≈ 1.94 µg/mL); MIC [7]: 1.95 µg/mL (≈ 2.11 µM); MIC (in parentheses) [7]: 2.1 µM (≈ 1.94 µg/mL); MIC [12]: 1.95 µg/mL (≈ 2.11 µM); MIC (in parentheses) [12]: 2.1 µM (≈ 1.94 µg/mL); SMIC90 of pre-formed biofilm relative to MIC with planktonic cells [13]: 2 fold; MIC [15]: 1.95 µg/mL (≈ 2.11 µM); MIC (in parentheses) [15]: 2.1 µM (≈ 1.94 µg/mL); MIC [17]: 0.98 µg/mL (≈ 1.06 µM); MIC (in parentheses) [17]: 1.1 µM (≈ 1.02 µg/mL)
2 | CC(=O)OC[C@H]1O[C@@H]([S-])[C@H](OC(C)=O)[C@@H](OC(C)=O)[C@@H]1OC(C)=O.CCP(CC)CC.[Au+] [Auranofin, auranofin, reference compound] | 31.3 | 46.1 | >31.3 | > 31.3 | > 46.1 | > 31.3 | > 46.1 | >31.3 | 3.9 | 5.7 | > 31.3 | > 46.1 | ≤ 0.06 | ≤ 0.1 | 7.8 | 11.5 | >31.3 | > 31.3 | > 46.1 | 31.3 | IC50 [18]: 500 ± 100 nM; IC50 [19]: 16200 nM; IC50 [20]: 1300 ± 100 nM; IC50 [21]: 3000 ± 200 nM; Pre-formed biofilm SMIC90 ([13]; listed as auranofin): inactive; MIC [17]: > 31.3 µg/mL; MIC (in parentheses) [17]: > 46.1 µM
3 | bis-[1,2-bis[(2R,5R)-2,5-dimethylfphospholano]benzene]gold(1) [Compound 6] | 0.98 | 0.6 | 3.9 | 3.9 | 4.6 | 1.95 | 2.3 | 7.8 | 0.49 | 0.6 | 0.49 | 0.6 | 0.25 | 0.3 | 3.9 | 4.6 | 3.9 | 0.98 | 0.6 | 1.95 | MIC [5]: 3.9 µg/mL; MIC (in parentheses) [5]: 4.6 µM; MIC [7]: 1.95 µg/mL; MIC (in parentheses) [7]: 2.3 µM; IC50 [18]: 2500 ± 200 nM; IC50 [19]: 1500 ± 100 nM; IC50 [20]: 4900 ± 300 nM; IC50 [21]: 5700 ± 500 nM; MIC [12]: 3.9 µg/mL; MIC (in parentheses) [12]: 4.6 µM; SMIC90 of pre-formed biofilm relative to MIC with planktonic cells [13]: 4 fold; MIC [15]: 1.95 µg/mL; MIC (in parentheses) [15]: 2.3 µM; MIC [17]: 0.49 µg/mL; MIC (in parentheses) [17]: 0.6 µM
